Experiments:
PANC-1 cells [1] = type: cell-based, human
Colo205 cells = type: cell-based, human
MDA-MB435 cells = type: cell-based, human
PANC-1 cells [2] = type: cell-based, human; remark: listed apart in the source
[3] = test system: human xenograft tumor models; assay: MYXV replication in human xenograft tumor models; type: in vivo; details: human xenograft tumor models in NSG mice
2D and 3D cell cultures = assay: MYXV replication in 2D and 3D cell cultures; type: cell-based

O=C(/C=C\n1cnc(-c2cc(C(F)(F)F)cc(C(F)(F)F)c2)n1)NNc1cnccn1 [selinexor]
significantly enhanced: MYXV gene expression and replication (PANC-1 cells [1]) | MYXV gene expression and replication (Colo205 cells) | MYXV gene expression and replication (MDA-MB435 cells) | replication of vMyx-M11L-KO (progeny virus) (PANC-1 cells [2]) | replication of vMyx-hLIGHT (progeny virus) (PANC-1 cells [2]) | MYXV replication [3] | MYXV replication (2D and 3D cell cultures)
